Test results: PMC11576293, “New series of 4,6-diaryl pyrimidines: facile synthesis and antiproliferative activity as dual EGFR/VEGFR-2 inhibitors” (Frontiers in Chemistry, 2024)

Tests used:
Assay in all cases: NCI-60 single-dose screen
Format in all cases: cell-based
786-0 = conditions: Homo sapiens, single dose 10 µM, '-' = no inhibition, read-out: % Growth Inhibition
In short: (§1)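 Single concentration (10 μM) per compound, assayed by the NCI DTP against its 60-line panel covering leukemia, lung, colon, CNS, melanoma, ovarian, renal, prostate and breast cancers.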

A498 = conditions: Homo sapiens, single dose 10 µM, '-' = no inhibition, read-out: % Growth Inhibition
In short: as §1

A549/ATCC = conditions: Homo sapiens, single dose 10 µM, '-' = no inhibition, read-out: % Growth Inhibition
In short: as §1

ACHN 1 = conditions: Homo sapiens, single dose 10 µM, '-' = no inhibition, read-out: % Growth Inhibition
In short: as §1

BT-549 = conditions: Homo sapiens, single dose 10 µM, '-' = no inhibition, read-out: % Growth Inhibition
In short: as §1

CCRF-CEM = conditions: Homo sapiens, single dose 10 µM, '-' = no inhibition, read-out: % Growth Inhibition
In short: as §1

COLO 205 = conditions: Homo sapiens, single dose 10 µM, '-' = no inhibition, read-out: % Growth Inhibition
In short: as §1

DU-145 = conditions: Homo sapiens, single dose 10 µM, '-' = no inhibition, read-out: % Growth Inhibition
In short: as §1

EKVX = conditions: Homo sapiens, single dose 10 µM, '-' = no inhibition, read-out: % Growth Inhibition
In short: as §1

HCC-2998 = conditions: Homo sapiens, single dose 10 µM, '-' = no inhibition, read-out: % Growth Inhibition
In short: as §1

HCT-116 = conditions: Homo sapiens, single dose 10 µM, '-' = no inhibition, read-out: % Growth Inhibition
In short: as §1

HL-60(TB) = conditions: Homo sapiens, single dose 10 µM, '-' = no inhibition, read-out: % Growth Inhibition
HOP-62 = conditions: Homo sapiens, single dose 10 µM, '-' = no inhibition, read-out: % Growth Inhibition
In short: as §1

HOP-92 = conditions: Homo sapiens, single dose 10 µM, '-' = no inhibition, read-out: % Growth Inhibition
In short: as §1

HS 578T = conditions: Homo sapiens, single dose 10 µM, '-' = no inhibition, read-out: % Growth Inhibition
In short: as §1

HT29 = conditions: Homo sapiens, HT-29, single dose 10 µM, '-' = no inhibition, read-out: % Growth Inhibition
In short: as §1

IGROV1 = conditions: Homo sapiens, IGROV-1, single dose 10 µM, '-' = no inhibition, read-out: % Growth Inhibition
In short: as §1

K-562 = conditions: Homo sapiens, K562, single dose 10 µM, '-' = no inhibition, read-out: % Growth Inhibition
In short: as §1

KM12 = conditions: Homo sapiens, single dose 10 µM, '-' = no inhibition, read-out: % Growth Inhibition
In short: as §1

M14 = conditions: Homo sapiens, single dose 10 µM, '-' = no inhibition, read-out: % Growth Inhibition
In short: as §1

MALME-3M = conditions: Homo sapiens, single dose 10 µM, '-' = no inhibition, read-out: % Growth Inhibition
In short: as §1

MCF7 = conditions: Homo sapiens, single dose 10 µM, '-' = no inhibition, read-out: % Growth Inhibition
In short: as §1

MDA-MB-435 = conditions: Homo sapiens, single dose 10 µM, '-' = no inhibition, read-out: % Growth Inhibition
In short: as §1

MDA-MB-468 = conditions: Homo sapiens, single dose 10 µM, '-' = no inhibition, read-out: % Growth Inhibition
In short: as §1

NCI-H23 = conditions: Homo sapiens, single dose 10 µM, '-' = no inhibition, read-out: % Growth Inhibition
In short: as §1

NCI-H322M = conditions: Homo sapiens, single dose 10 µM, '-' = no inhibition, read-out: % Growth Inhibition
In short: as §1

NCI-H460 = conditions: Homo sapiens, single dose 10 µM, '-' = no inhibition, read-out: % Growth Inhibition
In short: as §1

OVCAR-4 = conditions: Homo sapiens, single dose 10 µM, '-' = no inhibition, read-out: % Growth Inhibition
In short: as §1

OVCAR-5 = conditions: Homo sapiens, single dose 10 µM, '-' = no inhibition, read-out: % Growth Inhibition
In short: as §1

OVCAR-8 = conditions: Homo sapiens, single dose 10 µM, '-' = no inhibition, read-out: % Growth Inhibition
In short: as §1

PC-3 = conditions: Homo sapiens, single dose 10 µM, '-' = no inhibition, read-out: % Growth Inhibition
In short: as §1

RPMI-8226 = conditions: Homo sapiens, single dose 10 µM, '-' = no inhibition, read-out: % Growth Inhibition
In short: as §1

RXF 393 = conditions: Homo sapiens, single dose 10 µM, '-' = no inhibition, read-out: % Growth Inhibition
In short: as §1

SF-268 = conditions: Homo sapiens, single dose 10 µM, '-' = no inhibition, read-out: % Growth Inhibition
In short: as §1

SF-295 = conditions: Homo sapiens, single dose 10 µM, '-' = no inhibition, read-out: % Growth Inhibition
In short: as §1

SF-539 = conditions: Homo sapiens, single dose 10 µM, '-' = no inhibition, read-out: % Growth Inhibition
In short: as §1

SK-MEL-28 = conditions: Homo sapiens, single dose 10 µM, '-' = no inhibition, read-out: % Growth Inhibition
In short: as §1

SK-MEL-2 = conditions: Homo sapiens, single dose 10 µM, '-' = no inhibition, read-out: % Growth Inhibition
In short: as §1

SK-MEL-5 = conditions: Homo sapiens, single dose 10 µM, '-' = no inhibition, read-out: % Growth Inhibition
In short: as §1

SK-OV-3 = conditions: Homo sapiens, single dose 10 µM, '-' = no inhibition, read-out: % Growth Inhibition
In short: as §1

SN12C = conditions: Homo sapiens, single dose 10 µM, '-' = no inhibition, read-out: % Growth Inhibition
In short: as §1

SNB-75 = conditions: Homo sapiens, single dose 10 µM, '-' = no inhibition, read-out: % Growth Inhibition
In short: as §1

SR = conditions: Homo sapiens, single dose 10 µM, '-' = no inhibition, read-out: % Growth Inhibition
In short: as §1

SW-620 = conditions: Homo sapiens, single dose 10 µM, '-' = no inhibition, read-out: % Growth Inhibition
In short: as §1

T-47D = conditions: Homo sapiens, T47D, single dose 10 µM, '-' = no inhibition, read-out: % Growth Inhibition
In short: as §1

TK-10 = conditions: Homo sapiens, single dose 10 µM, '-' = no inhibition, read-out: % Growth Inhibition
In short: as §1

U251 = conditions: Homo sapiens, U-251, single dose 10 µM, '-' = no inhibition, read-out: % Growth Inhibition
In short: as §1

UACC-257 = conditions: Homo sapiens, single dose 10 µM, '-' = no inhibition, read-out: % Growth Inhibition
In short: as §1

## CCSc1nc(-c2ccc(Cl)cc2)cc(-c2ccc(OC)c(OC)c2)n1 [Compound 24, 4-(4-Chlorophenyl)-2-(ethylthio)-6-(3,4-dimethoxyphenyl)pyrimidine]
786-0
  inhibition at 10 µM: 11.8%
A498
  inhibition at 10 µM: 1.95%
A549/ATCC
  inhibition at 10 µM: 23%
ACHN 1
  inhibition at 10 µM: 7.24%
BT-549
  inhibition at 10 µM: < 0%
CCRF-CEM
  inhibition at 10 µM: 19.3%
COLO 205
  inhibition at 10 µM: 35.4%
DU-145
  inhibition at 10 µM: 7.4%
EKVX
  inhibition at 10 µM: 20.4%
HCC-2998
  inhibition at 10 µM: 4.44%
HCT-116
  inhibition at 10 µM: 30%
HL-60(TB)
  inhibition at 10 µM: 22.8%
HOP-62
  inhibition at 10 µM: < 0%
HOP-92
  inhibition at 10 µM: 1.94%
HS 578T
  inhibition at 10 µM: 20.6%
HT29
  inhibition at 10 µM: 28.3%
IGROV1
  inhibition at 10 µM: < 0%
K-562
  inhibition at 10 µM: 41.5%
KM12
  inhibition at 10 µM: 29.8%
M14
  inhibition at 10 µM: 3.7%
MALME-3M
  inhibition at 10 µM: < 0%
MCF7
  inhibition at 10 µM: 18.5%
MDA-MB-435
  inhibition at 10 µM: 19.7%
MDA-MB-468
  inhibition at 10 µM: 11.3%
NCI-H23
  inhibition at 10 µM: 1.67%
NCI-H322M
  inhibition at 10 µM: 13.8%
NCI-H460
  inhibition at 10 µM: < 0%
OVCAR-4
  inhibition at 10 µM: 26.4%
OVCAR-5
  inhibition at 10 µM: 11%
OVCAR-8
  inhibition at 10 µM: 6.83%
PC-3
  inhibition at 10 µM: 26.4%
RPMI-8226
  inhibition at 10 µM: 26.4%
RXF 393
  inhibition at 10 µM: 23.5%
SF-268
  inhibition at 10 µM: 16.9%
SF-295
  inhibition at 10 µM: 7.88%
SF-539
  inhibition at 10 µM: 7.9%
SK-MEL-28
  inhibition at 10 µM: 5.5%
SK-MEL-2
  inhibition at 10 µM: 11.9%
SK-MEL-5
  inhibition at 10 µM: 28.9%
SK-OV-3
  inhibition at 10 µM: < 0%
SN12C
  inhibition at 10 µM: 22.8%
SNB-75
  inhibition at 10 µM: 6.37%
SR
  inhibition at 10 µM: 39.6%
SW-620
  inhibition at 10 µM: 20.9%
T-47D
  inhibition at 10 µM: 37.6%
TK-10
  inhibition at 10 µM: < 0%
U251
  inhibition at 10 µM: 14.7%
UACC-257
  inhibition at 10 µM: 13.5%

## CCCSc1nc(-c2ccc(Cl)cc2)cc(-c2ccc(OC)c(OC)c2)n1 [Compound 25, 4-(4-Chlorophenyl)-6-(3,4-dimethoxyphenyl)-2-(propylthio)pyrimidine]
786-0
  inhibition at 10 µM: < 0%
A498
  inhibition at 10 µM: < 0%
A549/ATCC
  inhibition at 10 µM: 17.3%
ACHN 1
  inhibition at 10 µM: 7.82%
BT-549
  inhibition at 10 µM: < 0%
CCRF-CEM
  inhibition at 10 µM: 11.2%
COLO 205
  inhibition at 10 µM: 31.7%
DU-145
  inhibition at 10 µM: 17.6%
EKVX
  inhibition at 10 µM: 5.09%
HCC-2998
  inhibition at 10 µM: 4.26%
HCT-116
  inhibition at 10 µM: < 0%
HL-60(TB)
  inhibition at 10 µM: 15.5%
HOP-62
  inhibition at 10 µM: < 0%
HOP-92
  inhibition at 10 µM: < 0%
HS 578T
  inhibition at 10 µM: < 0%
HT29
  inhibition at 10 µM: 14.7%
IGROV1
  inhibition at 10 µM: < 0%
K-562
  inhibition at 10 µM: 27.1%
KM12
  inhibition at 10 µM: 25.5%
M14
  inhibition at 10 µM: < 0%
MALME-3M
  inhibition at 10 µM: 7.34%
MCF7
  inhibition at 10 µM: 17.5%
MDA-MB-435
  inhibition at 10 µM: 0.34%
MDA-MB-468
  inhibition at 10 µM: < 0%
NCI-H23
  inhibition at 10 µM: 2.74%
NCI-H322M
  inhibition at 10 µM: 4.54%
NCI-H460
  inhibition at 10 µM: < 0%
OVCAR-4
  inhibition at 10 µM: 20.2%
OVCAR-5
  inhibition at 10 µM: 4.78%
OVCAR-8
  inhibition at 10 µM: 6.34%
PC-3
  inhibition at 10 µM: 6.31%
RPMI-8226
  inhibition at 10 µM: 10.8%
RXF 393
  inhibition at 10 µM: 8.5%
SF-268
  inhibition at 10 µM: 6.85%
SF-295
  inhibition at 10 µM: 5.66%
SF-539
  inhibition at 10 µM: 1.28%
SK-MEL-28
  inhibition at 10 µM: 17.4%
SK-MEL-2
  inhibition at 10 µM: 14.9%
SK-MEL-5
  inhibition at 10 µM: 0.38%
SK-OV-3
  inhibition at 10 µM: 2.94%
SN12C
  inhibition at 10 µM: < 0%
SNB-75
  inhibition at 10 µM: 2.64%
SR
  inhibition at 10 µM: 24.9%
SW-620
  inhibition at 10 µM: 3.63%
T-47D
  inhibition at 10 µM: 34.5%
TK-10
  inhibition at 10 µM: 11.6%
U251
  inhibition at 10 µM: 7.53%
UACC-257
  inhibition at 10 µM: 24.8%
